In data set [1] the test system is Human peripheral blood mononuclear cells (PBMCs) as Responder cells, RPMI 1788 Stimulator cells. Put plainly: Mixed Lymphocyte Reaction (MLR) test. It is filed as cell-based. The following applies: Homo sapiens, RPMI-1788, lowest concentration giving 50% inhibition of the MLR; 6 days coculture, 3H-thymidine incorporation. In a few lines: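 Proliferation was read as cpm after a 1 μCi ^3H-thymidine pulse on day 5 and harvest 18 h later, then expressed as % inhibition relative to an MLR without compound. The 6-day triplicate cocultures combined 0.12×10^6 Ficoll-isolated human PBMCs with 0.045×10^6 mitomycin C-inactivated RPMI 1788 cells in RPMI 1640 with 10% FCS.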
In general terms: Uptake of a labelled nucleoside into DNA is a usual measure of proliferation.

For data set [2], the system named is cardiac allograft (C57BL/6 H-2b donor heart in Balb/c H-2d recipient). Put plainly: mouse model of cardiac allograft transplantation (graft survival). It is filed as in vivo. On the procedure: Inbreed C57BL/6 H-2^b and Balb/c H-2^d female mice, 8-10 weeks old, 20-25 g, were used as donor and recipient, respectively. Heterotopic heart transplantation was performed by implanting the donor heart on the neck of recipients using conventional microsurgery techniques. Graft beating was checked daily by inspection and palpation. Cessation of beating indicated graft rejection, which was confirmed by histological examination. Housing and all experimental animal procedures were approved by the Institutional Animal Care and Research Advisory Committee of the KU Leuven.

pIC50: −log10 of the molar value. Some results are limits rather than exact numbers.

The values below come from patent publication US9221822B2, “Thiazolopyrimidine modulators as immunosuppressive agents” (Katholieke Universiteit Leuven, K.U.Leuven R&D, priority 2009, dated 2015).

In data set [1], `Nc1nc(N2CCN(C(=O)COc3ccc(Cl)cc3)CC2)c2nc(-c3cccnc3)sc2n1` [Example 121a, 5-amino-7-[4-(4-chlorophenoxyacetyl)piperazin-1-yl]-2-(pyridine-3-yl)thiazolo[5,4-d]pyrimidine] had a pIC50 of 7.30. The “grafts with continuous survival during treatment” value in data set [2] (Example 448, 40 mg/kg by daily oral gavage until day 30, n=4) is 3 out of 4. The “graft beating after withdrawal of the treatment” value in data set [2] (Example 448, 40 mg/kg oral, treatment stopped day 30) is recorded as “continued beating after withdrawal of the treatment (up to 60 days)”.
With `Cc1ccc(NC(=O)N2CCN(c3nc(N)nc4sc(-c5cccnc5)nc34)CC2)cc1` [Example 222, 4-(5-amino-2-(pyridin-3-yl)thiazolo[5,4-d]pyrimidin-7-yl)-N-p-tolylpiperazine-1-carboxamide], the graft survival result in data set [2] (Example 449, 20 mg/kg per day) is “up to 13 days”. Besides, in data set [2] (Example 449, 40 mg/kg per day), the “grafts continuously functioning after stopping the treatment on day 30” value is given as 3/4. Further, the “grafts with continuous survival during treatment” value in data set [2] (Example 449, 40 mg/kg per day by daily gavage until day 30) was 4/6.
`CCOc1nc(N)nc2sc(-c3ccc(F)cc3)cc12` [Example 363, 4-ethoxy-6-(4-fluorophenyl)thieno[2,3-d]pyrimidin-2-amine] yielded a melting point of 142 °C.
Turning to `Cn1c(-c2ccc(F)cc2)nc2c(N3CCN(C(=O)COc4ccc(Cl)cc4)CC3)nc(N)nc21` [Example 430, 1-(4-(2-amino-8-(4-fluorophenyl)-9-methyl-9H-purin-6-yl)piperazin-1-yl)-2-(4-chlorophenoxy)ethanone], the pIC50 in data set [1] is 6.44.
In the case of `Nc1nc(N2CCN(C(=O)COc3ccc(Cl)cc3)CC2)c2nc(-c3ccc(F)cc3)n(Cc3ccccc3)c2n1` [Example 431, 1-(4-(2-amino-9-benzyl-8-(4-fluorophenyl)-9H-purin-6-yl)piperazin-1-yl)-2-(4-chlorophenoxy)ethanone], the negative logarithm of the IC50 (pIC50) in data set [1] is < 5.00.
The same measure, in the same setting: for `Nc1nc(N2CCN(C(=O)CCc3ccccc3)CC2)c2nc(-c3ccc(F)cc3)[nH]c2n1` [Example 438, 1-(4-(2-amino-8-(4-fluorophenyl)-9H-purin-6-yl)piperazin-1-yl)-3-phenylpropan-1-one] the value was 5.59.

What is called pIC50 is the IC50 on a negative log10 scale, so that one unit is a factor of ten. Read a low pIC50 as a large IC50. As usually defined, the melting point is the temperature, or range, at which the solid turns liquid.
